In US9206122B2, “Pesticidal arylpyrrolidines” (BAYER INTELLECTUAL PROPERTY GMBH, priority 2012, dated 2015):

How the values were obtained:
Assay type in all cases: in vivo
[1] = test system: Boophilus microplus; experiment: Boophilus microplus injection test; conditions: 20 μg/animal, injected into abdomen of adult engorged female ticks; egg deposition monitored after 7 days
Experimental: Boophilus microplus Injectiontest Solvent: dimethyl sulfoxide To produce a suitable preparation of active compound, 10 mg of active compound are dissolved in 0.5 ml solvent, and the concentrate is diluted with solvent to the desired concentration. Five adult engorged female ticks (Boophilus microplus) are injected with 1 μl compound solution into the abdomen. Ticks are transferred into replica plates and incubated in a climate chamber. After 7 days, the egg deposition of fertile eggs is monitored. Eggs where fertility is not visible are stored in glass tubes in a climate chamber till hatching after about 42 days. An efficacy of 100% means that all eggs are infertile; 0% means that all eggs are fertile.

[2] = test system: Ctenocephalides felis; experiment: whole plant or invertebrate; conditions: po, 48 h
Experimental: Ctenocephalides felis—Oral Test
(§1) Solvent: dimethyl sulfoxide
To produce a suitable preparation of active compound, 10 mg of active compound are dissolved in 0.5 ml solvent, and the concentrate is diluted with cattle blood to the desired concentration.
Approximately 20 adult unfed cat fleas (Ctenocephalides felis) are placed in flea chambers. The blood chamber, sealed with parafilm on the bottom, are filled with cattle blood supplied with compound solution and placed on the gauze covered top of the flea chamber, so that the fleas are able to suck the blood. The blood chamber is heated to 37° C. whereas the flea chamber is kept at room temperature.
After 2 days mortality in % is determined 100% means that all the fleas have been killed; 0% means that none of the fleas have been killed.

[3] = test system: Lucilia cuprina; experiment: whole plant or invertebrate; conditions: in Equus caballus, 48 h
Experimental: solvent: dimethyl sulfoxide
10 mg active compound are dissolved in 0.5 ml Dimethylsulfoxid. Serial dilutions are made to obtain the desired rates.
Approximately 20 1st instar larvae of the Australian sheep blowfly (Lucilia cuprina) are transferred into a test tube containing minced horse meat and compound solution of the desired concentration.
After 2 days mortality in % is determined. 100% means that all the larvae have been killed; 0% means that none of the larvae have been killed.

[4] = test system: Musca domestica; experiment: whole plant or invertebrate; conditions: 48 h
Experimental: as §1
To produce a suitable preparation of active compound, 10 mg of active compound are dissolved in 0.5 ml solvent, and the concentrate is diluted with water to the desired concentration.
10 adult house flies (Musca domestica) are transferred into a container, containing a sponge soaked with a mixture of sugar solution and compound solution of the desired concentration.
After 2 days mortality in % is determined. 100% means that all the flies have been killed; 0% means that none of the flies have been killed.

[5] = test system: Myzus persicae; experiment: whole plant or invertebrate; conditions: in Brassica rapa, foliar, 144 h
Experimental: Myzus persicae—Spray Test
(§2) Solvent: 78.0 parts by weight acetone
(§3) • 1.5 parts by weight dimethylformamide Emulsifier: 0.5 parts by weight alkylarylpolyglycolether
(§4) To produce a suitable preparation of active compound, 1 part by weight of active compound is mixed with the stated amount of solvent and emulsifier, and the concentrate is diluted with emulsifier-containing water to the desired concentration.
Chinese cabbage (Brassica pekinensis) leaf disks infected with all instars of the green peach aphid (Myzus persicae), are sprayed with a preparation of the active ingredient of the desired concentration.
After 6 days, mortality in % is determined 100% means that all aphids have been killed; 0% means that none of the aphids have been killed.

[6] = test system: Spodoptera frugiperda; experiment: whole plant or invertebrate; conditions: in Zea mays, 168 h
Experimental: Spodoptera frugiperda—Spray Test
as §2, §3
To produce a suitable preparation of the active compound, 1 part by weight of active compound is mixed with the stated amount of solvent and emulsifier, and the concentrate is diluted with emulsifier-containing water to the desired concentration.
Maize (Zea mays) leaf sections are sprayed with a preparation of the active ingredient of the desired concentration. Once dry, the leaf sections are infested with fall armyworm larvae (Spodoptera frugiperda).
After 7 days, mortality in % is determined 100% means that all caterpillars have been killed and 0% means that none of the caterpillars have been killed.

[7] = test system: Phaedon cochleariae; experiment: whole plant or invertebrate; conditions: in Brassica rapa, foliar, 168 h
Experimental: Phaedon cochleariae—Spray Test
Solvent: 78.0 parts by weight of acetone
• 1.5 parts by weight of dimethylformamide Emulsifier: 0.5 parts by weight of alkylaryl polyglycolether
as §4
Chinese cabbage (Brassica pekinensis) leaf-disks are sprayed with a preparation of the active ingredient of the desired concentration. Once dry, the leaf disks are infested with mustard beetle larvae (Phaedon cochleariae).
After 7 days mortality in % is determined. 100% means that all beetle larvae have been killed and 0% means that none of the beetle larvae have been killed.

[8] = test system: Tetranychus urticae; experiment: whole plant or invertebrate; conditions: 144 h
Experimental: Tetranychus urticae—Spray Test, OP-Resistant
as §2, §3, §4
French beans (Phaseolus vulgaris) which are heavily infested with all stages of the two spotted spidermite (Tetranychus urticae), are sprayed with a preparation of the active ingredient of the desired concentration.
After 6 days, mortality in % is determined. 100% means that all spider mites have been killed and 0% means that none of the spider mites have been killed.

SMILES | efficacy (100% means that all eggs are infertile) [1] | further results
CC(=O)NC1CCc2cc(N3CCC(c4cc(Cl)cc(Cl)c4)(C(F)(F)F)C3O)ccc21 (stereo not drawn) [I-A-1] | 100% | –
CCC(=O)NC1CCc2cc(N3CCC(c4cc(Cl)cc(Cl)c4)(C(F)(F)F)C3O)ccc21 (stereo not drawn) [I-A-2] | 100% | mortality at 100 ppm [2]: 100%; mortality at 100 ppm [3]: 100%; mortality at 100 ppm [4]: 80%
CC(=O)NC1CCc2cc(N3CCC(c4cc(Cl)c(Cl)c(Cl)c4)(C(F)(F)F)C3O)ccc21 (stereo not drawn) [I-A-13] | 100% | –
CC(C)CC(=O)NC1CCc2cc(N3CCC(c4cc(Cl)c(Cl)c(Cl)c4)(C(F)(F)F)C3O)ccc21 (stereo not drawn) [I-A-18] | 100% | –
O=C(CC1CC1)NC1CCc2cc(N3CCC(c4cc(Cl)c(Cl)c(Cl)c4)(C(F)(F)F)C3O)ccc21 (stereo not drawn) [I-A-21] | 100% | –
O=C(NC1CCc2cc(N3CCC(c4cc(Cl)c(F)c(Cl)c4F)(C(F)(F)F)C3O)ccc21)C1CC1 (stereo not drawn) [I-A-31] | 100% | –
O=C(CC1CC1)NC1CCc2cc(N3CCC(c4cc(Cl)c(F)c(Cl)c4F)(C(F)(F)F)C3O)ccc21 (stereo not drawn) [I-A-33] | 100% | –
CC(=O)NC1CCc2cc(N3CCC(c4cc(C(F)(F)F)cc(C(F)(F)F)c4)(C(F)(F)F)C3O)ccc21 (stereo not drawn) [I-A-37] | 100% | –
CCC(=O)NC1CCc2cc(N3CCC(c4cc(C(F)(F)F)cc(C(F)(F)F)c4)(C(F)(F)F)C3O)ccc21 (stereo not drawn) [I-A-38, N-(5-{3-[3,5-bis(trifluoromethyl)phenyl]-2-hydroxy-3-(trifluoromethyl)pyrrolidin-1-yl}-2,3-dihydro-1H-inden-1-yl)propanamide] | – | mortality at 100 g/ha [5]: 100%; mortality at 100 g/ha [6]: 100%; mortality at 100 g/ha [7]: 100%; mortality at 100 g/ha [8]: 90%
CCCC(=O)NC1CCc2cc(N3CCC(c4cc(C(F)(F)F)cc(C(F)(F)F)c4)(C(F)(F)F)C3O)ccc21 (stereo not drawn) [I-A-40] | 100% | –
O=C(NC1CCc2cc(N3CCC(c4cc(Cl)cc(C(F)(F)F)c4)(C(F)(F)F)C3O)ccc21)C1CC1 (stereo not drawn) [I-A-79] | 100% | –
O=C(NC1CCc2cc(N3CCC(c4ccc(F)c(C(F)(F)F)c4)(C(F)(F)F)C3O)ccc21)C1CC1 (stereo not drawn) [I-A-115] | 100% | –
